In patent US11885796B2, “Assay to identify anti-cancer agents” (LDN Pharma Limited, priority 2017, dated 2024):

Key:
Format in all cases: cell-based
OPRK1 [1] = assay: Level of expression of OPRK1 by immunoblotting in HCT116 colon cancer cells; conditions: 1 nM to 10 μM, 48 h, immunoblotting (FIG. 1)
Method: (§1) In order to determine the effect of 6-β-naltrexol or naltrexone on the level of expression of OPRK1, A549 lung cancer or HCT116 colon cancer cells were seeded onto 6-well plates at a density of 2×10^5 cell/well, and allowed to adhere overnight. Cells were then cultured in the presence of naltrexone or 6-β-naltrexol at concentrations of 1 nM, 10 nM, 100 nM, 1 μM or 10 μM for a further 48 h. Cells were then harvested and processed for measurements of OPRK1, opioid receptor-μ1 (OPRM1) and GAPDH using standard immunoblotting techniques. The effect of 6-β-naltrexol or naltrexone on the level of expression of BAD was investigated by using the same protocol as outlined above. The effect was determined in HCT116 cells using either 10 nM or 10 μM of 6-β-naltrexol or 10 nM or 10 μM naltrexone (FIG. 2).

BAD = assay: Level of expression of BAD by immunoblotting in HCT116 cells; conditions: 48 h (FIG. 2)
Method: as §1

A549 and HCT116 cells = assay: Two-phase priming with 6-β-naltrexol then chemotherapy agent; cell number and viability by trypan blue cell counting
Method: The impact of combining 6-β-naltrexol with other chemotherapeutic agents was tested by culturing cells according to a treatment schedule that involved two phases of treatment. The first phase involved priming with 10 nM 6-β-naltrexol or 10 μM 6-β-naltrexol for 48 h, before treatment with another drug for a further 48 h. A549 and HCT116 cells were seeded into 6-well plates at a density of 2×10^5 cells/well and left to adhere overnight. Media was removed after 48 h, and cells were rinsed gently with drug-free medium. Fresh culture medium that contained cyclophosphamide (CPM), gemcitabine (GEM) or oxaliplatin (OXP) was then added to the cells. The concentrations of the chemotherapy agents used were approximately ¼ IC50, as established previously (Liu W M, Fowler D W, Smith P, Dalgleish A G. Pre-treatment with chemotherapy can enhance the antigenicity and immunogenicity of tumours by promoting adaptive immune responses. Br J Cancer. 2010 Jan. 5; 102(1):115-23). Cells were then left for a further 48 h before assessment of cell number of viability by cell counting using trypan blue dye as a way of discriminating live and dead cells. Cytostasis was indicated by a reduction in cell number and no associated reduction in cell viability.

OPRK1 [2] = assay: Level of expression of OPRK1 by immunoblotting in A549 lung cancer cells; conditions: 1 nM to 10 μM, 48 h, immunoblotting (FIG. 1)
Method: as §1

Compound	level of expression of OPRK1 (OPRK1 [1])	effect on the level of expression of BAD (BAD; 10 nM)	increase of the level of expression of BAD (BAD; 10 μM)	independent cytotoxicity of the priming agent (A549 and HCT116 cells; higher dose of 6-β-naltrexol alone (double doses control))	cytotoxic effect of certain anti-cancer agents after priming (A549 and HCT116 cells; priming 48 h in an amount sufficient to raise OPRK1 expression by at least 10%, then cyclophosphamide, gemcitabine or oxaliplatin at approximately ¼ IC50 for 48 h)	level of expression of OPRK1 (OPRK1 [2])	effect on the level of expression of BAD (BAD; 10 μM)
Oc1ccc2c3c1OC1[C@H](O)CC[C@@]4(O)[C@@H](C2)N(CC2CC2)CC[C@]314 (stereo partly drawn) [6-β-naltrexol, 17-(Cyclopropylmethyl)-4,5-epoxymorphinan-3,6beta, 14-triol]	increases the level of expression	negligible effect	more than 10%	absence of any independent increase in cytotoxicity	increased	increase the level of expression	–
O=C1CC[C@@]2(O)[C@H]3Cc4ccc(O)c5c4[C@@]2(CCN3CC2CC2)[C@H]1O5 [naltrexone]	down-regulates the level of expression	negligible effect	–	–	–	increase the level of expression	negligible effect
